Measurements: US20030087906A1, “NITROGEN SUBSTITUTED BIARYL PURINE DERIVATIVES AS POTENT ANTIPROLIFERATIVE AGENTS” (priority 2001, published 2003)
Where “and” joins values, the source holds several entries; their conditions need not be identical. Equal entries are not always repeated.

Key:
ACHN = test: NCI 60-cell line growth inhibition assay; assay type: cell-based; details: Homo sapiens
786-0 = test: NCI 60-cell line growth inhibition assay; assay type: cell-based; details: Homo sapiens
NCI-H23 = test: NCI 60-cell line growth inhibition assay; assay type: cell-based; details: Homo sapiens
T-47D = test: NCI 60-cell line growth inhibition assay; assay type: cell-based; details: Homo sapiens, T47D
SF-268 = test: NCI 60-cell line growth inhibition assay; assay type: cell-based; details: Homo sapiens
PC-3 = test: NCI 60-cell line growth inhibition assay; assay type: cell-based; details: Homo sapiens
[1] = MTD (NCI in vivo evaluation, Table 8); details: mouse
A498 = test: NCI 60-cell line growth inhibition assay; assay type: cell-based; details: Homo sapiens
DU-145 = test: NCI 60-cell line growth inhibition assay; assay type: cell-based; details: Homo sapiens
UACC-62 = test: NCI 60-cell line growth inhibition assay; assay type: cell-based; details: Homo sapiens
BT-549 = test: NCI 60-cell line growth inhibition assay; assay type: cell-based; details: Homo sapiens
HCC-2998 = test: NCI 60-cell line growth inhibition assay; assay type: cell-based; details: Homo sapiens
[2] = system: Tumor Cells in Hollow Fibers; test: NCI Hollow Fiber Assay (in vivo evaluation); details: for IP Score: IP fibers; for SC score: SC fibers
NCI/ADR-RES = test: NCI 60-cell line growth inhibition assay; assay type: cell-based; details: Homo sapiens
CyclinB/cdk1 = molecular target: T1, CyclinB/cdk1 (Homo sapiens, UniProt P06493); test: CyclinB/cdk1 protein kinase assay (histone H1 phosphorylation); assay type: biochemical; details: complex immunopurified from HeLa cells; 15 μM ATP; replicate experiments
T1 construct: Monoclonal antibody against cyclinB (GNS1) is added to the supernatant; endogenous in cells

OVCAR-3 = test: NCI 60-cell line growth inhibition assay; assay type: cell-based; details: Homo sapiens
SK-MEL-2 = test: NCI 60-cell line growth inhibition assay; assay type: cell-based; details: Homo sapiens
CyclinA/cdk2 = CyclinA/cdk2 (Homo sapiens, UniProt P24941); test: CyclinA/cdk2 protein kinase assay (histone H1 phosphorylation); details: IC50 CyclinA/cdk2, complex immunopurified from HeLa cells; 15 μM ATP; replicate experiments
HCT-116 = test: NCI 60-cell line growth inhibition assay; assay type: cell-based; details: Homo sapiens
SF-539 = test: NCI 60-cell line growth inhibition assay; assay type: cell-based; details: Homo sapiens
UACC-257 = test: NCI 60-cell line growth inhibition assay; assay type: cell-based; details: Homo sapiens
SNB-19 = test: NCI 60-cell line growth inhibition assay; assay type: cell-based; details: Homo sapiens
CCRF-CEM = test: NCI 60-cell line growth inhibition assay; assay type: cell-based; details: Homo sapiens
HeLa S-3 cells = test: Inhibition of cell growth of HeLa cells (SRB); assay type: cell-based, human; details: Homo sapiens, HeLa S3, 48 h, 2 days of treatment, replicate experiments
MALME-3M = test: NCI 60-cell line growth inhibition assay; assay type: cell-based; details: Homo sapiens

T1 sequence (P06493 whole entry): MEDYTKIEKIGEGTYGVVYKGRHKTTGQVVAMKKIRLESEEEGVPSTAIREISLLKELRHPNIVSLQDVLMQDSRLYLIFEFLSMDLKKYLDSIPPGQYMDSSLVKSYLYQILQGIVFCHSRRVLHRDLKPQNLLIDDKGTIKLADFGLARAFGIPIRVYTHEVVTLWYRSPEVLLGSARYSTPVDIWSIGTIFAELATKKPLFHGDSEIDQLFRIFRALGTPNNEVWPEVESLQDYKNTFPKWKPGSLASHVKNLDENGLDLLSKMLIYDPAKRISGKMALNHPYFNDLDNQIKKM
T1 sequence (P14635 whole entry partner): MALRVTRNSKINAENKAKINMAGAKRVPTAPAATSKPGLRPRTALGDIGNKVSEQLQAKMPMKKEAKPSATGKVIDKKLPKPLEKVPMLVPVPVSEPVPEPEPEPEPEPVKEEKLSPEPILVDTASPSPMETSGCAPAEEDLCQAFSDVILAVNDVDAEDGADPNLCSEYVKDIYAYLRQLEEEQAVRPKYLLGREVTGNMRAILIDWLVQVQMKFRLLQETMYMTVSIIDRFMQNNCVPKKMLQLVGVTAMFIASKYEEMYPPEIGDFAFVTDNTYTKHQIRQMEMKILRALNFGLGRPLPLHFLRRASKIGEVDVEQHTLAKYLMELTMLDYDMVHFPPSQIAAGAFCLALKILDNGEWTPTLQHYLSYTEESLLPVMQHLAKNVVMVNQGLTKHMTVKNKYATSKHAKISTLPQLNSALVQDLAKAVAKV

CC(C)n1cnc2c(NCc3ccc(-c4ccsc4)cc3)nc(N[C@H]3CC[C@H](N)CC3)nc21 [Compound 12]
GI50 (ACHN; ACHN (Renal)): 39 nM | GI50 (786-0; 786-0 (Renal)): 6.5 nM | GI50 (NCI-H23; NCI-H23 (Non-Small Cell Lung)): < 5 nM | GI50 (T-47D; T-47D (Breast)): 8.8 nM | GI50 (SF-268; SF-268 (CNS)): < 5 nM | GI50 (PC-3; PC-3 (Prostate)): < 5 nM | MTD [1]: 3.1 mg/kg | GI50 (A498; A498 (Renal)): 16 nM | GI50 (DU-145; DU-145 (Prostate)): 17 nM | GI50 (UACC-62; UACC-62 (Melanoma)): 27 nM | GI50 (BT-549; BT-549 (Breast)): 41 nM | GI50 (HCC-2998; HCC-2998 (Colon)): < 5 nM | Cell Types Killed [2]: MDA-MB-435 | IP Score [2]: 26 | SC score [2]: 4 | GI50 (NCI/ADR-RES; NCI/ADR-RES (Breast)): 1260 nM | IC50 (CyclinB/cdk1): 3000 nM | GI50 (OVCAR-3; OVCAR-3 (Ovarian)): 12 nM | GI50 (SK-MEL-2; SK-MEL-2 (Melanoma)): 9.6 nM | IC50 (CyclinA/cdk2): 2000 nM and 700 nM and 900 nM and 200 nM | GI50 (HCT-116; HCT-116 (Colon)): 8.9 nM | GI50 (SF-539; SF-539 (CNS)): 22 nM | GI50 (UACC-257; UACC-257 (Melanoma)): 8 nM | GI50 (SNB-19; SNB-19 (CNS)): 16 nM | GI50 (CCRF-CEM; CCRF-CEM (Leukemia)): < 5 nM

CC[C@H](CO)Nc1nc(NCc2ccc(-c3ccccc3)cc2)c2ncn(C(C)C)c2n1 [Compound 73]
GI50 (ACHN; Renal, ACHN): 320 nM | GI50 (786-0; Renal, 786-0): 200 nM | GI50 (NCI-H23; Non-Small Cell Lung, NCI-H23): 320 nM | GI50 (T-47D; Breast, T-47D): 250 nM | GI50 (SF-268; CNS, SF-268): 160 nM | GI50 (PC-3; Prostate, PC-3): 350 nM | MTD [1]: 100 mg/kg | GI50 (A498; Renal, A498): 2880 nM | GI50 (DU-145; Prostate, DU-145): 7080 nM | GI50 (UACC-62; Melanoma, UACC-62): 300 nM | GI50 (BT-549; Breast, BT-549): 250 nM | GI50 (HCC-2998; Colon, HCC-2998): 200 nM | IP Score [2]: 2 | SC score [2]: 0 | GI50 (NCI/ADR-RES; Breast, NCI/ADR-RES): 400 nM | GI50 (OVCAR-3; Ovarian, OVCAR-3): 300 nM | GI50 (HeLa S-3 cells): 300 nM | GI50 (SK-MEL-2; Melanoma, SK-MEL-2): 630 nM | GI50 (HCT-116; Colon, HCT-116): 200 nM | GI50 (SF-539; CNS, SF-539): 760 nM | GI50 (UACC-257; Melanoma, UACC-257): 160 nM | GI50 (SNB-19; CNS, SNB-19): 430 nM | GI50 (MALME-3M; Melanoma, MALME-3M): 270 nM | GI50 (CCRF-CEM; Leukemia, CCRF-CEM): 250 nM

CC(=O)N[C@H]1CC[C@H](Nc2nc(NCc3ccc(-c4ccccn4)cc3)c3ncn(C(C)C)c3n2)CC1 [Compound 79]
GI50 (ACHN; ACHN (Renal)): < 10 nM | GI50 (786-0; 786-0 (Renal)): < 10 nM | GI50 (NCI-H23; NCI-H23 (Non-Small Cell Lung)): < 10 nM | GI50 (T-47D; T-47D (Breast)): < 10 nM | GI50 (SF-268; SF-268 (CNS)): < 10 nM | GI50 (PC-3; PC-3 (Prostate)): < 10 nM | MTD [1]: 6.3 mg/kg | GI50 (A498; A498 (Renal)): < 10 nM | GI50 (DU-145; DU-145 (Prostate)): < 10 nM | GI50 (UACC-62; UACC-62 (Melanoma)): < 10 nM | GI50 (BT-549; BT-549 (Breast)): < 10 nM | GI50 (HCC-2998; HCC-2998 (Colon)): < 10 nM | IP Score [2]: 26 | SC score [2]: 6 | GI50 (NCI/ADR-RES; NCI/ADR-RES (Breast)): 860 nM | IC50 (CyclinB/cdk1): 3000 nM | GI50 (OVCAR-3; OVCAR-3 (Ovarian)): < 10 nM | GI50 (SK-MEL-2; SK-MEL-2 (Melanoma)): < 10 nM | IC50 (CyclinA/cdk2): 500 nM and 1000 nM | GI50 (HCT-116; HCT-116 (Colon)): < 10 nM | GI50 (SF-539; SF-539 (CNS)): < 10 nM | GI50 (UACC-257; UACC-257 (Melanoma)): < 10 nM | GI50 (SNB-19; SNB-19 (CNS)): < 10 nM | GI50 (MALME-3M; MALME-3M (Melanoma)): < 10 nM | GI50 (CCRF-CEM; CCRF-CEM (Leukemia)): < 10 nM
